Read-outs that look alike come from different tables or passages of the source.
Legend:
[1] = target: T1, PRKACA (Homo sapiens, UniProt P17612); assay: Kinobeads full dose-response competition binding: PRKACA; details: Gene Name PRKACA
T1 construct: a mixture of lysates from five cancer cell lines; endogenous in cells

[2] = target: T2, PRKCD (Homo sapiens, UniProt Q05655); assay: Kinobeads full dose-response competition binding: PRKCD; details: Gene Name PRKCD
T2 construct: endogenous in cells

[3] = test system: 468 kinases; design: KINOMEScan: unit not given here; details: cited from earlier work; for KINOMEScan: published data
[4] = target: T3, RIPK2 (Homo sapiens, UniProt O43353); assay: Kinobeads full dose-response competition binding: RIPK2; details: Gene Name RIPK2
T3 construct: endogenous in cells

[5] = EC50 with Correction, doses in nM, read-out: apparent Kd
[6] = eight-dose curve fit, doses in nM

T2 sequence (Q05655 whole entry): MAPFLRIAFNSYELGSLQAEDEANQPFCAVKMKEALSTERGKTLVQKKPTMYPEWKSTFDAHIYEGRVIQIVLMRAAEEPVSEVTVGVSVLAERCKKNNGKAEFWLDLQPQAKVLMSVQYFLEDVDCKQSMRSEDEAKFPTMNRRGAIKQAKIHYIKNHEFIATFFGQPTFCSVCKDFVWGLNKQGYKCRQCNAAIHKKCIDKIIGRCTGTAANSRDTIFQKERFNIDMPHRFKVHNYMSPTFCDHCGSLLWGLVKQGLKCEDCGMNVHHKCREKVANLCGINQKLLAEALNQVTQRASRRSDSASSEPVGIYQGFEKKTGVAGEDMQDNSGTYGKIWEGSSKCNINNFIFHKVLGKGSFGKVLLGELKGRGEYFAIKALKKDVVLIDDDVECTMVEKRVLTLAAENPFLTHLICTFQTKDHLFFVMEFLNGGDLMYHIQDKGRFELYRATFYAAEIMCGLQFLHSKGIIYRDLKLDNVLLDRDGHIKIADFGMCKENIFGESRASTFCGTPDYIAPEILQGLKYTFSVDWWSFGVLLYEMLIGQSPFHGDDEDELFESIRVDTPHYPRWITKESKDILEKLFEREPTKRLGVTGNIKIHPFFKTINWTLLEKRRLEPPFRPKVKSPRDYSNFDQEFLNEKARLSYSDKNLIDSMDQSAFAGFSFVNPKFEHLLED
T3 sequence (O43353 whole entry): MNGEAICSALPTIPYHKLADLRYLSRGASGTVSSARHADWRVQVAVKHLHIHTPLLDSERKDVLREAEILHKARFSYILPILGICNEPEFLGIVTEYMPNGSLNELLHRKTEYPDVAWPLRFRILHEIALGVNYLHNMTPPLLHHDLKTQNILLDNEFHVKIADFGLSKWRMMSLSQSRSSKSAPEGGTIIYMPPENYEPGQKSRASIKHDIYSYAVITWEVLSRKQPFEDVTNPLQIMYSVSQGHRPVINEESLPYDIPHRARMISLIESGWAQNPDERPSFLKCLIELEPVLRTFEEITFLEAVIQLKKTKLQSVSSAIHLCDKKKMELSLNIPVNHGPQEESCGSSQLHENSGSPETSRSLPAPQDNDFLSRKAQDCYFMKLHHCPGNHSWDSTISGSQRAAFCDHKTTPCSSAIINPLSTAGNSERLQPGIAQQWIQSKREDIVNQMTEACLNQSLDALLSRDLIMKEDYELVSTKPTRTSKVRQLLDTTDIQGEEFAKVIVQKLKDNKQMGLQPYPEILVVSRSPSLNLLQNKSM

## CCn1c(-c2nonc2N)nc2c(C#CC(C)(C)O)nc(OCCN)cc21 [GSK902056A]
[1]; 0.3nM compound, DMSO = 1
  Relative Intensity 0.3nM: 1.008
[1]; 1nM compound, DMSO = 1
  Relative Intensity 1nM: 0.9404
[1]; 3nM compound, DMSO = 1
  Relative Intensity 3nM: 0.9819
[1]; 10nM compound, DMSO = 1
  Relative Intensity 10nM: 0.932
[1]; 30nM compound, DMSO = 1
  Relative Intensity 30nM: 0.8034
[1]; 100nM compound, DMSO = 1
  Relative Intensity 100nM: 0.7942
[1]; 300nM compound, DMSO = 1
  Relative Intensity 300nM: 0.6618
[1]; 1000nM compound, DMSO = 1
  Relative Intensity 1000nM: 0.5702
[1]; [5]
  Kd: 212 nM
[1]; [6]
  EC50: 230 nM
[2]; 0.3nM compound, DMSO = 1
  Relative Intensity 0.3nM: 0.9769
[2]; 1nM compound, DMSO = 1
  Relative Intensity 1nM: 1.01
[2]; 3nM compound, DMSO = 1
  Relative Intensity 3nM: 1.114
[2]; 10nM compound, DMSO = 1
  Relative Intensity 10nM: 1.044
[2]; 30nM compound, DMSO = 1
  Relative Intensity 30nM: 0.8254
[2]; 100nM compound, DMSO = 1
  Relative Intensity 100nM: 0.6161
[2]; 300nM compound, DMSO = 1
  Relative Intensity 300nM: 0.3888
[2]; 1000nM compound, DMSO = 1
  Relative Intensity 1000nM: 0.1734
[2]; [5]
  Kd: 124 nM
[2]; [6]
  EC50: 124 nM

## COc1cc(Nc2ncc3c(C)nc(-c4cc5ccccc5[nH]4)n3n2)cc(OC)c1OC [GW869516X]
[3]; broad KINOMEscan assay covering 468 kinases, ref a previous study
  number of kinases with more than 70% inhibition of binding: 33
[3]; kinase AMPK-alpha1
  KINOMEScan: 89
[3]; kinase AMPK-alpha2
  KINOMEScan: 61
[3]; kinase BLK
  KINOMEScan: 60
[3]; kinase CIT
  KINOMEScan: 100
[3]; kinase CLK1
  KINOMEScan: 88
[3]; kinase CLK2
  KINOMEScan: 75
[3]; kinase CSNK2A1
  KINOMEScan: 96.4
[3]; kinase CSNK2A2
  KINOMEScan: 99.7
[3]; kinase DDR1
  KINOMEScan: 52
[3]; kinase DDR2
  KINOMEScan: 52
[3]; kinase DYRK1A
  KINOMEScan: 85
[3]; kinase DYRK1B
  KINOMEScan: 81
[3]; kinase EPHB1
  KINOMEScan: 58
[3]; kinase FLT3-autoinhibited
  KINOMEScan: 75
[3]; kinase FLT3
  KINOMEScan: 96.3
[3]; kinase GCN2(Kin.Dom.2,S808G)
  KINOMEScan: 88
[3]; kinase HIPK1
  KINOMEScan: 79
[3]; kinase INSRR
  KINOMEScan: 53
[3]; kinase JAK1(JH2domain-pseudokinase)
  KINOMEScan: 98.5
[3]; kinase JAK2(JH1domain-catalytic)
  KINOMEScan: 54
[3]; kinase KIT
  KINOMEScan: 72
[3]; kinase LCK
  KINOMEScan: 71
[3]; kinase MAP3K4
  KINOMEScan: 52
[3]; kinase MEK5
  KINOMEScan: 78
[3]; kinase MERTK
  KINOMEScan: 56
[3]; kinase MLK1
  KINOMEScan: 93.8
[3]; kinase MLK2
  KINOMEScan: 89
[3]; kinase MLK3
  KINOMEScan: 87
[3]; kinase NEK2
  KINOMEScan: 70
[3]; kinase NEK3
  KINOMEScan: 89
[3]; kinase NEK5
  KINOMEScan: 99
[3]; kinase NEK6
  KINOMEScan: 99.6
[3]; kinase NEK7
  KINOMEScan: 99.7
[3]; kinase NEK9
  KINOMEScan: 90
[3]; kinase NEK11
  KINOMEScan: 86
[3]; kinase PAK3
  KINOMEScan: 69
[3]; kinase PIP5K1C
  KINOMEScan: 89
[3]; kinase PIP5K2C
  KINOMEScan: 90.3
[3]; kinase PKAC-beta
  KINOMEScan: 51
[3]; kinase RSK1(Kin.Dom.1-N-terminal)
  KINOMEScan: 91.7
[3]; kinase RSK3(Kin.Dom.1-N-terminal)
  KINOMEScan: 66
[3]; kinase SLK
  KINOMEScan: 63
[3]; kinase SRC
  KINOMEScan: 90.1
[3]; kinase STK16
  KINOMEScan: 86
[3]; kinase SYK
  KINOMEScan: 53
[3]; kinase TBK1
  KINOMEScan: 58
[3]; kinase TYK2(JH2domain-pseudokinase)
  KINOMEScan: 82
[3]; kinase ULK2
  KINOMEScan: 51
[3]; kinase WEE2
  KINOMEScan: 85

## NCc1ccc(-c2nc(-c3ccncc3)c(-c3ccc(Cl)c(O)c3)[nH]2)cc1 [SB-476429-A]
[4]; 0.3nM compound, DMSO = 1
  Relative Intensity 0.3nM: 0.9341
[4]; 1nM compound, DMSO = 1
  Relative Intensity 1nM: 0.8676
[4]; 3nM compound, DMSO = 1
  Relative Intensity 3nM: 0.8459
[4]; 10nM compound, DMSO = 1
  Relative Intensity 10nM: 0.8036
[4]; 30nM compound, DMSO = 1
  Relative Intensity 30nM: 0.6574
[4]; 100nM compound, DMSO = 1
  Relative Intensity 100nM: 0.3411
[4]; 300nM compound, DMSO = 1
  Relative Intensity 300nM: 0.1841
[4]; 1000nM compound, DMSO = 1
  Relative Intensity 1000nM: 0.1065
[4]; [5]
  Kd: 28.8 nM
[4]; [6]
  EC50: 55.9 nM

Source: article PMC11062922 (Nature Chemical Biology, 2023)
